The target in one experiment is ghrelin receptor (Homo sapiens, UniProt Q92847). The experiment in a line: Inverse agonist assay, Example 4. Particulars: inverse agonist activity. It is filed as cell-based. From the text: The inverse agonist activity at the ghrelin receptor for compounds of the invention can be determined using the methods described in Intl. Pat. Appl. Publ. No. WO 2004/056869 and Holst, B.; Cygankiewicz, A.; Halkjaer, T.; Ankersen, A.; Schwartz, T. W. High constitutive signaling of the ghrelin receptor—identification of a potent inverse agonist. Mol. Endocrinol. 2003, 17, 2201-2210.
ghrelin receptor, sequence (Q92847 whole entry): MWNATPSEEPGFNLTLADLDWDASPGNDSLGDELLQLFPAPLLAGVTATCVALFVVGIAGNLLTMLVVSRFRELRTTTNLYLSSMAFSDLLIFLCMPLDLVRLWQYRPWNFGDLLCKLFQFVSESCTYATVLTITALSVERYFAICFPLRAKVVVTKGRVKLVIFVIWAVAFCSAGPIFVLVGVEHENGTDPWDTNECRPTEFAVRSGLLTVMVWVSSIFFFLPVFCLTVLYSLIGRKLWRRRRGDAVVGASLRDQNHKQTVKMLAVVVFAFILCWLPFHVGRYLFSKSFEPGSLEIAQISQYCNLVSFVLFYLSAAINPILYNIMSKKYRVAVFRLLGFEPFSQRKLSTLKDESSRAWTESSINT

Experiment [1] has as its target T1, human ghrelin receptor (hGHS-R1a) (Homo sapiens, UniProt Q92847).
T1 construct: purchased PerkinElmer BioSignal #RBHGHSM, lot#1887; host or cells: HEK-293 cells, stably transfected; membranes
Kind of experiment: Competitive radioligand binding assay (ghrelin receptor), [125I]-ghrelin, GHS-R/HEK 293 membranes. To be noted: competition with [125I]-ghrelin. How it is done: The competitive binding assay at the human growth hormone secretagogue receptor (HGHS-R1a) was carried out analogously to assays described in the literature. (Bednarek M A et al. Structure-function studies on the new growth hormone-releasing peptide ghrelin: minimal sequence of ghrelin necessary for activation of growth hormone secretagogue receptor 1a; J. Med. Chem. 2000, 43, 4370-4376; Palucki, B. L. et al. Spiro(indoline-3,4′-piperidine) growth hormone secretagogues as ghrelin mimetics; Bioorg. Med. Chem. Lett. […], 11, 1955-1957).
Membranes (GHS-R/HEK 293) were prepared from HEK-293 cells stably transfected with the human ghrelin receptor (hGHS-R1a). These membranes were provided by PerkinElmer BioSignal (#RBHGHSM, lot#1887) and utilized at a quantity of 0.71 μg/assay point. • 1. [^125]-Ghrelin (PerkinElmer, #NEX-388); final concentration: 0.0070-0.0085 nM • 2. […] Multiscreen Harvest plates-GF/C (Millipore, #MAHFC1H60) • 4. Deep-well polypropylene titer plate (Beckman Coulter, #267006) • 5. TopSeal-A (PerkinElmer, #6005185) • 6. Bottom seal (Millipore, #MATAH0P00) • 7. MicroScint-0 (PerkinElmer, #6013611) • 8. Binding Buffer: 25 mM Hepes (pH 7.4), 1 mM CaCl2, 5 mM MgCl2, 2.5 mM EDTA, 0.4% BSA
Competition experiments were performed in a 300 μl filtration assay format. • 1. 220 μL of membranes diluted in binding buffer • 2. 40 μL of compound diluted in binding buffer • 3.
Compounds were provided frozen on dry ice at a stock concentration of 10 mM diluted in 100% DMSO and stored at −80° C. until the day of testing. On the test day, compounds were allowed to thaw at rt overnight and then diluted in assay buffer according to the desired test concentrations. Under these conditions, the maximal final DMSO concentration in the assay was 0.1%.
In deep-well plates, 220 μL of diluted cell membranes (final concentration: 0.71 μg/well) were combined with 40 μL of either binding buffer (total binding, N=5), 1 μM ghrelin (non-specific binding, N=3) or the appropriate concentration of test compound N=2 for each test concentration). […] Plates were sealed with TopSeal-A, vortexed gently and incubated at rt for 30 min. The reaction was arrested by filtering samples through Multiscreen Harvest plates (pre-soaked in 0.5% polyethyleneimine) using a Tomtec Harvester, washed 9 times with 500 μL of cold 50 mM Tris-HCl (pH 7.4, 4° C.), and then plates were air-dried in a fumehood for 30 min. A bottom seal was applied to the plates prior to the addition of 25 μL of MicroScint-0 to each well. Plates were than sealed with TopSeal-A and counted for 30 sec per well on a TopCount Microplate Scintillation and Luminescence Counter (PerkinElmer) using a count delay of 60 sec. Results were expressed as counts per minute (cpm).
Data were analyzed by GraphPad Prism (GraphPad Software, San Diego, Calif.) using a variable slope non-linear regression analysis.
Dmax values were calculated using the following formula: […]
where total and non-specific binding represent the cpm obtained in the absence or presence of 1 μM ghrelin, respectively.

T1 sequence (Q92847 whole entry): as above

In general, IC50 refers to the concentration needed to halve the response being measured. Low values mean greater potency, high ones weaker potency. As a reminder, the Ki is a measure of affinity in units of concentration, obtained from inhibition or displacement. A higher Ki goes with a looser hold on the target. In the case of `CCC(C)[C@@H]1NCCOc2ccccc2/C=C/CNC(=O)[C@@H](Cc2ccccc2)NC(=O)[C@H](C(C)O)N(C)C1=O` (some centres unmarked) [Compound 502], the IC50 at ghrelin receptor lay in the range of 1 to 100 nM. This molecule also registered a Ki in experiment [1] of 1 to 100 nM.
